Measured values from ChEMBL document CHEMBL1201862, “PubChem BioAssay data set” (2004).
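Protocol summary: plate cells (96-well), add compound at 5 concentrations, incubate 48 h, interpolate endpoints linearly. Here, GI50 denotes the concentration required for 50% inhibition of growth.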 Calls of active or inactive are those of the source. No stated cut-off is given here; in the data, active = GI50 up to about 1.1 µM and inactive = higher.

How the values were obtained:
Experiment in all cases: DTP human tumour cell line panel, 48 h
MCF7 = test system: MCF7
SK-OV-3 = test system: SK-OV-3
SNB-75 = test system: SNB-75
M14 = test system: M14
SK-MEL-28 = test system: SK-MEL-28
SR = test system: SR
A549 = test system: A549
K562 = test system: K562
ACHN = test system: ACHN
NCI-H23 = test system: NCI-H23
MDA-N = test system: MDA-N
MDA-MB-435 = test system: MDA-MB-435
KM12 = test system: KM12
SN12C = test system: SN12C
OVCAR-4 = test system: OVCAR-4
CAKI-1 = test system: CAKI-1
Malme-3M = test system: Malme-3M
U-251 = test system: U-251
MDA-MB-231 = test system: MDA-MB-231
HCC 2998 = test system: HCC 2998

Measured: GI50

O=C(O)CCC(=O)c1ccc2sc3ccccc3c2c1
inactive: MCF7 > 100 µM | SK-OV-3 > 100 µM | SNB-75 > 100 µM | M14 > 100 µM | SK-MEL-28 > 100 µM | SR > 100 µM | A549 > 100 µM | K562 > 100 µM | ACHN > 100 µM | NCI-H23 > 100 µM | MDA-N > 100 µM | MDA-MB-435 > 100 µM | KM12 > 100 µM | SN12C > 100 µM | OVCAR-4 > 100 µM | CAKI-1 > 100 µM | Malme-3M > 100 µM | U-251 > 100 µM | MDA-MB-231 > 100 µM

S=C1SCN(C2CCCCCCCCCCC2)CN1C1CCCCCCCCCCC1
inactive: MCF7 66.8 µM | SK-OV-3 > 100 µM | SNB-75 > 100 µM | M14 > 100 µM | SK-MEL-28 > 100 µM | SR 71.6 µM | A549 > 100 µM | K562 > 100 µM | ACHN > 100 µM | NCI-H23 > 100 µM | MDA-N > 100 µM | MDA-MB-435 42.2 µM | KM12 > 100 µM | SN12C > 100 µM | OVCAR-4 86.7 µM | CAKI-1 > 100 µM | Malme-3M > 100 µM | U-251 > 100 µM | MDA-MB-231 > 100 µM

O=c1[nH]c2cccc([N+](=O)[O-])c2c(=O)n1-c1ccc(Cl)cc1
inactive: MCF7 9.91 µM | SK-OV-3 14.3 µM | M14 10.7 µM | SK-MEL-28 13.4 µM | SR 15 µM | A549 12.4 µM | K562 1.48 µM | ACHN 8.51 µM | HCC 2998 14 µM | NCI-H23 20.3 µM | MDA-N 11.3 µM | MDA-MB-435 6.64 µM | KM12 15.2 µM | SN12C 14 µM | OVCAR-4 5.07 µM | CAKI-1 2.64 µM | Malme-3M 12.8 µM | U-251 16.4 µM | MDA-MB-231 15.8 µM

COc1cccc(NC(=O)CC(=O)Nc2cccc(OC)c2)c1
inactive: MCF7 > 100 µM | SK-OV-3 > 100 µM | M14 > 100 µM | SK-MEL-28 > 100 µM | SR > 100 µM | A549 > 100 µM | K562 > 100 µM | ACHN > 100 µM | HCC 2998 > 100 µM | NCI-H23 > 100 µM | MDA-N > 100 µM | MDA-MB-435 > 100 µM | KM12 > 100 µM | SN12C > 100 µM | OVCAR-4 > 100 µM | CAKI-1 > 100 µM | Malme-3M > 100 µM | U-251 > 100 µM | MDA-MB-231 > 100 µM

C(=C/CCCN1O[C@@H](CCCCCCCCc2cccnc2)[C@H]2CCC[C@H]21)/CCCCCCCCCc1cccnc1
inactive: MCF7 15.7 µM | SK-OV-3 19 µM | SNB-75 27.1 µM | M14 24 µM | SK-MEL-28 21.3 µM | SR 17.2 µM | A549 14.1 µM | K562 11.1 µM | NCI-H23 16.6 µM | MDA-N 24.1 µM | MDA-MB-435 16.2 µM | KM12 18.5 µM | SN12C 19.7 µM | OVCAR-4 32.4 µM | CAKI-1 13.5 µM | Malme-3M 15.4 µM | U-251 15.7 µM | MDA-MB-231 17.9 µM

CC(C)(C)n1[nH]c(=O)n(C(C)(C)C)c1=O
inactive: MCF7 > 100 µM | SK-OV-3 > 100 µM | SNB-75 > 100 µM | M14 > 100 µM | SK-MEL-28 > 100 µM | SR > 100 µM | A549 > 100 µM | K562 > 100 µM | ACHN > 100 µM | HCC 2998 > 100 µM | NCI-H23 > 100 µM | MDA-N > 100 µM | MDA-MB-435 > 100 µM | KM12 > 100 µM | SN12C > 100 µM | OVCAR-4 > 100 µM | CAKI-1 > 100 µM | U-251 > 100 µM | MDA-MB-231 > 100 µM

CCN1C=C/C(=C\C=C\c2cc[n+](CC)c3ccccc23)c2ccccc21
inactive: MCF7 6.28 µM | SK-OV-3 4.66 µM | SNB-75 2.64 µM | M14 5.02 µM | SK-MEL-28 8.99 µM | SR 3.33 µM | A549 3.77 µM | ACHN 11.9 µM | HCC 2998 7.24 µM | NCI-H23 2.87 µM | MDA-N 7.01 µM | MDA-MB-435 4.21 µM | KM12 3.42 µM | SN12C 3.63 µM | OVCAR-4 4.46 µM | Malme-3M 13.4 µM | U-251 3.8 µM | MDA-MB-231 3.31 µM

COc1cc(S(=O)(=O)Nc2ccc(-c3csc(/N=C\c4ccccc4O)n3)cc2)ccc1Cl
inactive: MCF7 22.6 µM | SK-OV-3 > 100 µM | SNB-75 55.2 µM | M14 59 µM | SK-MEL-28 39.3 µM | SR 31.6 µM | A549 63.1 µM | K562 28.2 µM | ACHN 62.2 µM | NCI-H23 52.7 µM | MDA-N 33.9 µM | MDA-MB-435 36.1 µM | KM12 38.1 µM | SN12C 65.2 µM | OVCAR-4 44.9 µM | CAKI-1 > 100 µM | Malme-3M 39.3 µM | MDA-MB-231 53.6 µM

COc1cccc(C(C#N)NNC(=O)c2c(Cl)c(Cl)c(Cl)c(Cl)c2-c2nc3cc(C(=O)c4ccccc4)ccc3[nH]2)c1O (configuration not stated)
inactive: MCF7 3.22 µM | SK-OV-3 3.03 µM | SNB-75 2 µM | M14 3.66 µM | SK-MEL-28 9.73 µM | SR 2.91 µM | A549 4.06 µM | K562 3.27 µM | ACHN 6.44 µM | NCI-H23 5.74 µM | MDA-N 1.68 µM | MDA-MB-435 1.81 µM | KM12 3.64 µM | SN12C 2.7 µM | OVCAR-4 3.09 µM | CAKI-1 6.25 µM | U-251 4.44 µM | MDA-MB-231 4.15 µM

O=C(O)CCC(N/N=N/c1ccc(-c2nc3ccccc3[nH]2)cc1)C(=O)O (configuration not stated)
inactive: MCF7 23.1 µM | SK-OV-3 59.7 µM | SNB-75 59.2 µM | M14 54.1 µM | SK-MEL-28 > 100 µM | SR 29.7 µM | A549 78.7 µM | K562 30.1 µM | ACHN 28.2 µM | NCI-H23 71.3 µM | MDA-N 56 µM | MDA-MB-435 52.8 µM | KM12 37.4 µM | SN12C 60.4 µM | OVCAR-4 66.5 µM | CAKI-1 61.4 µM | U-251 43.7 µM | MDA-MB-231 > 100 µM

C1=CC(=[N+]2N=C(c3ccccc3)CC2c2ccccc2)C=CC1=C1SC(c2ccccc2)(c2ccccc2)c2ccccc21.[O-][Cl+3]([O-])([O-])[O-] (configuration not stated)
inactive: MCF7 > 100 µM | SK-OV-3 > 100 µM | M14 60.8 µM | SK-MEL-28 > 100 µM | SR > 100 µM | A549 > 100 µM | K562 > 100 µM | ACHN > 100 µM | HCC 2998 > 100 µM | NCI-H23 > 100 µM | MDA-N > 100 µM | MDA-MB-435 > 100 µM | KM12 > 100 µM | SN12C > 100 µM | Malme-3M > 100 µM | U-251 > 100 µM | MDA-MB-231 > 100 µM
